# Reference: patent US5466687A, “Arylidene-1-azacycloalkanes and arylalkyl-1-azacyclo-alkanes, their salts, medicaments containing these compounds and their use, and processes for their preparation” (priority 1992, dated 1995)
# Like-named read-outs stand apart in the source and are kept apart here.
# Legend:
# [1] = system: Normal human epidermal keratinocytes (NHEK); experiment: Inhibition of cell proliferation of keratinocytes; type: cell-based; details: read-out: percentage decrease in cell numbers
# Method: V. Inhibition of cell proliferation
# Normal human epidermal keratinocytes (NHEK) are cultured under sterile conditions in keratinocyte growth medium (Gibco) in a humidified, 5% CO2 -containing atmosphere. Cells of the third passage are inoculated at a density of 12,000 cells/ml.
# After 24 hours, the test substance is added to the medium and the number of cells is determined after a further 48 hours. The results were calculated in comparison to a control and are indicated as the percentage decrease in cell numbers.
# The proliferation-inhibiting action of the above mentioned compound A was tested in comparison to simvastatin at concentrations of 10^-6 to 10^-10 mol/l.
# [2] = Toxic effects in the mouse after oral administration; type: in vivo; details: oral 100 mg/kg, once daily for 4 days
# Source text: The compounds A to I appeared to be non-toxic at the curative dose.
# [3] = system: normolipaemic golden hamster; experiment: Determination of the lithogenic index in the normolipaemic golden hamster; type: in vivo; details: 20 days
# Method: IV. Determination of the lithogenic index in the normolipaemic golden hamster
# The lithogenic index is a measure of susceptibility to gallstone formation and is defined as the […] in mol %. It was determined by the method of Carey and Small, described in J. Clin. Investig. 61, 998-1026 [1978]. The higher the lithogenic index, the higher the probability of gallstone formation. The determination of the lithogenic index was carried out as follows:
# Male golden hamsters are fed ad lib with a cholesterol-free hamster diet for 20 days. The substance to be tested is admixed to the feed in concentrations of 0.01 to 0.1%. At the end of the experimental period, total cholesterol, the HDL fraction and also the VLDL+LDL fraction in the serum, and the bile acids, the cholesterol and the phospholipids in the bile are determined by standard methods.
# The compound A described above was tested. The percentage decrease in the lithogenic index was determined relative to the control.
# [4] = system: normolipaemic golden hamster; experiment: Lipid reduction in the normolipaemic golden hamster; type: in vivo; details: 12 days, vs control group
# Method: III. Lipid reduction in the normolipaemic golden hamster
# Male golden hamsters are fed ad lib with a cholesterol-free hamster diet for 12 days. The substance to be tested is admixed to the feed in concentrations of 0.01 to 0.10%. At the end of the experimental period, the total cholesterol, the HDL fraction and also the VLDL+LDL fraction are determined by standard methods, a control group fed without test substance being used for comparison.
# The hypolipidaemic activity of the above mentioned compound A was tested.
# [5] = system: human hepatoma cells (HEP-G2); experiment: Inhibition of 14C-acetate incorporation in digitonin-precipitatable steroids in HEP-G2 cells; type: cell-based; details: Homo sapiens; for percent change in 14C-acetate incorporation into sterols at 0.1 µM: HepG2, 10^-7 mol/l; for percent change in 14C-acetate incorporation into sterols at 0.01 µM: HepG2, 10^-8 mol/l
# Method: I. Measurement of the inhibition of ^14 C-acetate incorporation in digitonin-precipitatable steroids:
# After 3 days of culture, human hepatoma cells (HEP-G2) are stimulated for 16 hours in cholesterol-free medium. The substances to be tested (dissolved in dimethyl sulphoxide, final concentration 0.1%) are added during this stimulation phase. After the addition of 200 μmol/l of 2-^14 C-acetate, the mixture is then reincubated at 37° C. for a further 2 hours.
# The cells are detached and the sterol esters are hydrolyzed and, after extraction, sterols are precipitated using digitonin. The ^14 C-acetate incorporated into digitonin-precipitatable sterols is determined by scintillation measurement.
# The investigation of the inhibitory action was carried out at test concentrations of 10^-7 mol/l and 10^-8 mol/l. The test results of the following compounds A to AG of the general formula I are indicated at these test concentrations by way of example: […]
# [6] = system: 2,3-epoxysqualene-lanosterol cyclase; experiment: In vivo effect in the rat after oral administration: 2,3-epoxysqualene level in plasma; set-up: species or system rat (male Wistar); details: 5 hours after administration
# Method: II. Measurement of the in vivo effect in the rat after oral administration
# The inhibition of the enzyme 2,3-epoxysqualene-lanosterol cyclase causes an increase in the 2,3-epoxy-squalene level in the liver and plasma. Therefore, the amount of 2,3-epoxysqualene formed therefore serves as a direct measure of the effectiveness in the whole animal. The determination is carried out by the following method:
# The test substance suspended in 1.5% strength aqueous methylcellulose is administered via stomach tube to male Wistar rats (160-190 g body weight). 5 hours after administration, blood is obtained retroorbitally from the venous plexus. Plasma is extracted by the method of Bligh and Dyer (Canad. J. Biochem. Physiol. 37, 912, [1959]), purified by means of a precolumn and then analyzed by means of HPLC. The peaks obtained are identified and quantified by means of calibration substances. An internal standard is used to check the reproducibility of the results.
# The investigations were carried out using concentrations of 0.1 and 1.0 mg/kg. The results for the above mentioned substances A to M are compiled in the following Table by way of example: […]
# [7] = system: Penicillium notatum CBS 19746; experiment: Fungistatic activity, serial dilution test; type: cell-based; details: Penicillium chrysogenum, CBS19746, 2 to 4 days at 26° C.
# Method: (§1) VI. Determination of fungistatic activity The fungistatic activity was determined by means of the serial dilution test (microtitre system). Sabouraud broth was used as the nutrient medium. The inoculum was approximately 10^4 to 10^5 CFU/ml (CFU=colony-forming units); the incubation time was 2 to 4 days at 26° C. The minimum inhibitory concentration (MIC), i.e. the lowest concentration which no longer allowed visible growth, and the lowest concentration at which a decrease in growth of the test microorganism occurred in comparison with a control were determined. The above mentioned compound I was tested.
# [8] = system: Aspergillus niger ATCC 16404; experiment: Fungistatic activity, serial dilution test; type: cell-based; details: ATCC16404, 2 to 4 days at 26° C.
# Method: as §1
# Rhodotorula rubra 49 = experiment: Fungistatic activity, serial dilution test; type: cell-based; details: 2 to 4 days at 26° C.
# Method: as §1
# [9] = system: Sacc. carlsbergensis ATCC 9080; experiment: Fungistatic activity, serial dilution test; type: cell-based; details: Saccharomyces pastorianus, ATCC9080, 2 to 4 days at 26° C.
# Method: as §1
# [10] = system: Trichophyton mentagrophytes ATCC 9129; experiment: Fungistatic activity, serial dilution test; type: cell-based; details: ATCC9129, 2 to 4 days at 26° C.
# Method: as §1
# [11] = system: Candida albicans ATCC 10231; experiment: Fungistatic activity, serial dilution test; type: cell-based; details: ATCC10231, 2 to 4 days at 26° C.
# Method: as §1
# [12] = cited from earlier work
# laying hens = details: FASEB Journal 4, A 533 [1990]; cited from earlier work
# smooth muscle cell = details: Cardiovasc. Drugs Ther. 5, Suppl. 3, 354 [1991]; cited from earlier work
# [13] = J. Biol. Chemistry 265, 18075-18078 [1990]; cited from earlier work
# [14] = read-out: Decrease in growth (lowest concentration)
# [15] = Gut 31, 348-350 [1990], Z. Gastroenterol. 29, 242-245 [1991]
compound,measurement,setting,value
"O=C(c1ccc(Cl)cc1)N1CCC(=Cc2ccc(C3=NCCO3)cc2)CC1 [A, 1-(4-chlorobenzoyl)-4-[4-(2-oxazolin-2-yl)benzylidene]piperidine]",inhibition at 1 µM,"[1]; 10^-6 mol/l, 48 hours",72%
same,inhibition at 0.1 µM,"[1]; 10^-7 mol/l, 48 hours",73%
same,inhibition at 0.01 µM,"[1]; 10^-8 mol/l, 48 hours",70%
same,inhibition at 0.001 µM,"[1]; 10^-9 mol/l, 48 hours",48%
same,inhibition at 0.0001 µM,"[1]; 10^-10 mol/l, 48 hours",16%
same,toxic effects in the mouse,[2],no toxic effects
same,Lithogenic Index (percentage decrease relative to control),[3]; 0.01% in feed,-24%
same,Lithogenic Index (percentage decrease relative to control),"[3]; 0.03% in feed, n.s. = not significant",-10%
same,Lithogenic Index (percentage decrease relative to control),[3]; 0.1% in feed,-28%
same,HDL,[4]; 0.01% in feed,-12.4%
same,Total Cholesterol,[4]; 0.01% in feed,-19.8%
same,VLDL + LDL,[4]; 0.01% in feed,-25.0%
same,HDL,[4]; 0.03% in feed,-17.5%
same,Total Cholesterol,[4]; 0.03% in feed,-26.3%
same,VLDL + LDL,[4]; 0.03% in feed,-31.2%
same,HDL,[4]; 0.10% in feed,-13.9%
same,Total Cholesterol,[4]; 0.10% in feed,-25.8%
same,VLDL + LDL,[4]; 0.10% in feed,-36.6%
same,percent change in 14C-acetate incorporation into sterols at 0.1 µM,[5],-81%
same,percent change in 14C-acetate incorporation into sterols at 0.01 µM,[5],-58%
same,"2,3-Epoxysqualene concentration in plasma (rat)",[6]; 0.1 mg/kg oral,0.71 µg/mL
same,"2,3-Epoxysqualene concentration in plasma (rat)",[6]; 1.0 mg/kg oral,3.75 µg/mL
"O=C(c1ccc(C(F)(F)F)cc1)N1CCC(Cc2ccc(C3=NCCO3)cc2)CC1 [H, 4-[4-(2-oxazolin-2-yl)benzyl]-1-(4-trifluoromethylbenzoyl)piperidine]",toxic effects in the mouse,[2],no toxic effects
same,percent change in 14C-acetate incorporation into sterols at 0.1 µM,[5],-86%
same,percent change in 14C-acetate incorporation into sterols at 0.01 µM,[5],-62%
same,"2,3-Epoxysqualene concentration in plasma (rat)",[6]; 0.1 mg/kg oral,1.70 µg/mL
same,"2,3-Epoxysqualene concentration in plasma (rat)",[6]; 1.0 mg/kg oral,9.15 µg/mL
"O=C(c1ccc(Cl)cc1)N1CCC(Cc2ccc(C3=NCCO3)cc2)CC1 [I, 1-(4-chlorobenzoyl)-4-[4-(2-oxazolin-2-yl)benzyl]piperidine]",toxic effects in the mouse,[2],no toxic effects
same,MIC,[7],128 mg/L
same,minimal effective concentration,[7]; [14],64 µg/mL
same,MIC,[8],> 1020 mg/L
same,minimal effective concentration,[8]; [14],128 µg/mL
same,MIC,Rhodotorula rubra 49,128 mg/L
same,minimal effective concentration,Rhodotorula rubra 49; [14],32 µg/mL
same,MIC,[9],128 mg/L
same,minimal effective concentration,[9]; [14],64 µg/mL
same,MIC,[10],512 mg/L
same,MIC,[11],128 mg/L
same,minimal effective concentration,[11]; [14],64 µg/mL
same,percent change in 14C-acetate incorporation into sterols at 0.1 µM,[5],-89%
same,percent change in 14C-acetate incorporation into sterols at 0.01 µM,[5],-75%
same,"2,3-Epoxysqualene concentration in plasma (rat)",[6]; 0.1 mg/kg oral,3.41 µg/mL
same,"2,3-Epoxysqualene concentration in plasma (rat)",[6]; 1.0 mg/kg oral,8.41 µg/mL
"O=C(c1ccc(Cl)cc1)N1CCC(=Cc2ccc(C3=NCCO3)cc2F)CC1 [L, 1-(4-chlorobenzoyl)-4-[2-fluoro-4-(2-oxazolin-2-yl)benzylidene]piperidine]",percent change in 14C-acetate incorporation into sterols at 0.1 µM,[5],-83%
same,percent change in 14C-acetate incorporation into sterols at 0.01 µM,[5],-52%
same,"2,3-Epoxysqualene concentration in plasma (rat)",[6]; 0.1 mg/kg oral,0.44 µg/mL
same,"2,3-Epoxysqualene concentration in plasma (rat)",[6]; 1.0 mg/kg oral,6.46 µg/mL
"Cc1cc(C=C2CCN(C(=O)c3ccc(Cl)cc3)CC2)ccc1C1=NCCO1 [M, 1-(4-chlorobenzoyl)-4-[3-methyl-4-(2-oxazolin-2-yl)benzylidene]piperidine]",percent change in 14C-acetate incorporation into sterols at 0.1 µM,[5],-76%
same,percent change in 14C-acetate incorporation into sterols at 0.01 µM,[5],-32%
same,"2,3-Epoxysqualene concentration in plasma (rat)",[6]; 0.1 mg/kg oral,0.78 µg/mL
same,"2,3-Epoxysqualene concentration in plasma (rat)",[6]; 1.0 mg/kg oral,6.53 µg/mL
"CCC(C)(C)C(=O)O[C@H]1C[C@@H](C)C=C2C=C[C@H](C)[C@H](CC[C@@H]3C[C@@H](O)CC(=O)O3)[C@H]21 [Simvastatin, simvastatin, reference compound]",inhibition at 0.0001 µM,[1]; 48 h,7%
same,inhibition at 0.001 µM,[1]; 48 h,21%
same,inhibition at 0.01 µM,[1]; 48 h,20%
same,inhibition at 0.1 µM,[1]; 48 h,51%
same,inhibition at 1 µM,[1]; 48 h,68%
CC[C@H](C)C(=O)O[C@H]1C[C@@H](C)C=C2C=C[C@H](C)[C@H](CC[C@@H]3C[C@@H](O)CC(=O)O3)[C@H]21 [lovastatin],cholesterol concentration in the bile / lithogenic index,[12]; [15],can cause a reduction of the cholesterol concentration in the bile
same,gallstone formation,[12]; [15],do not lead to increased gallstone formation
same,dissolution of gallstones,"[12]; in particular in combination with ursodeoxycholic acid, Gastroenterology 102, A 319 [1992]",effectiveness
same,cholesterol content of eggs,laying hens,lowering of the cholesterol content of eggs
same,smooth muscle cell proliferation,smooth muscle cell,inhibition of smooth muscle cell proliferation
CC[C@H](C)C(=O)O[C@H]1C[C@H](O)C=C2C=C[C@H](C)[C@H](CC[C@@H](O)C[C@@H](O)CC(=O)O)[C@H]21 [pravastatin],cholesterol concentration in the bile / lithogenic index,[12]; [15],can cause a reduction of the cholesterol concentration in the bile
same,gallstone formation,[12]; in vivo,do not lead to increased gallstone formation
CCN(CC)CCOc1ccc(C(O)(Cc2ccc(Cl)cc2)c2ccc(C)cc2)cc1 (stereo not shown) [triparanol],toxic effects leading to withdrawal from the market,[13],"formation of cataracts, ichthyosis and alopecia"
